Data on one compound can be found in US20250000834A1, “COMPOSITIONS AND METHODS FOR TARGETING GPCR FOR THE PREVENTION AND TREATMENT OF PAIN” (Duke University, priority 2021, published 2025).

In this test the test system is STZ-induced mechanical allodynia in mice. Briefly: Streptozotocin (STZ)-induced mechanical allodynia, von Frey paw withdrawal threshold. Format: in vivo, mouse. The note with it: intrathecal 100 ng. The procedure: Pain models and drug injection: Animal model of chemotherapy-induced peripheral neuropathy (CIPN) was induced by paclitaxel (Sigma-Aldrich (St. Louis, MO), T7191, diluted with sterile saline). A single injection of paclitaxel ([…]) was given by intraperitoneal injection. A single injection of paclitaxel may induce mechanical allodynia for 4-6 weeks (X. Luo et al., Macrophage Toll-like Receptor 9 Contributes to Chemotherapy-Induced Neuropathic Pain in Male Mice. J Neurosci 39, 6848-6864 (2019)). Animal model of […] neuropathy was induced by streptozotocin (STZ, Sigma-Aldrich (St. Louis, MO), S0130, diluted with sterile saline). A single injection of STZ (75 mg/kg) was given as previously described (N. C. Brigham et al., Controlled release of etoricoxib from poly(ester urea) films for post-operative pain management. J Control Release 329, 316-327 (2021)). For intrathecal (i.t.) injection of MaR1, a spinal cord puncture was made by a Hamilton micro-syringe (Hamilton, Reno, NV) with a 30-gauge needle between the L5 and L6 levels to deliver reagents (5 μl) to the cerebral spinal fluid (J. L. Hylden, G. L. Wilcox, Intrathecal morphine in mice: a new technique. Eur. J Pharmacol. 67, 313-316 (1980)).
Nociceptive behavior tests: Gpr37l1^+/+, Gpr37l1^+/−, or Gpr37l1^−/− mice were habituated to the testing environment for at least two days before the baseline testing. All the animal behaviors were tested blindly. Thermal and mechanical sensitivity was tested before and after the injection of paclitaxel (PTX, 6 mg/kg, IP) and streptozotocin (STZ, 75 mg/kg, IP). MaR1 was intrathecally injected 3 days after the STZ and PTX injection. […] The 50% paw withdrawal threshold was measured by Dixon's up-down method (W. J. Dixon, Efficient analysis of experimental observations. Annu Rev Pharmacol Toxicol 20, 441-462 (1980)). Thermal sensitivity was measured using a Hargreaves radiant heat apparatus (IITC Life Science, Woodland Hills, CA) (K. Hargreaves, et al., A new and sensitive method for measuring thermal nociception in cutaneous hyperalgesia. Pain 32, 77-88 (1988)). […]

`CC/C=C\C/C=C\C[C@H](O)\C=C/C=C/C=C/[C@H](O)C/C=C\CCC(=O)O` [MaR1, Maresin 1]: the “effect on STZ-induced mechanical allodynia” value is given as “reversed STZ-induced mechanical allodynia in all the mice” (Gpr37l1+/+ WT mice, 3 days after STZ); “significantly reversed the mechanical allodynia in the majority” (Gpr37l1+/− mice); “no significant effects” (Gpr37l1−/− mice).
